Assay results published in patent US5091299A, “An enzyme electrode for use in organic solvents” (priority 1987, dated 1992).
Where “and” joins values, the source holds several entries; their conditions need not be identical. Equal entries are not always repeated. Blank lines part the entries; values can stand above or below the compound they belong to.

Tests used:
[1] = system: Polyphenol oxidase (tyrosinase); experiment: Electrode specificity, response of the enzyme electrode to ten phenols; assay type: biochemical; settings: phenol 100 μM, single electrode, chloroform
[2] = system: Polyphenol oxidase (tyrosinase); experiment: Operational stability of the enzyme electrode, sixteen consecutive p-cresol assays; settings: p-cresol 100 μM
[3] = system: Polyphenol oxidase (tyrosinase); experiment: Storage stability of the enzyme electrode, response to p-cresol; settings: p-cresol 200 μM
[4] = system: Polyphenol oxidase (tyrosinase); experiment: Calibration of the polyphenol oxidase enzyme electrode with p-cresol in chloroform; settings: after addition of p-cresol, -275 mV vs SCE
[5] = room temp. (20° C.), stored dry
[6] = room temp. (20° C.), stored in CHCl3

SMILES: Oc1ccc(Cl)cc1 [4-chlorophenol]
Electrode response [1]: 3.1 μA

Electrode response [1]: 6.7 μA
SMILES: Cc1ccc(O)c(O)c1 [4-methylcatechol]

SMILES: Oc1ccccc1O [catechol]
Electrode response [1]: 8.6 μA

SMILES: Cc1cccc(O)c1 [m-cresol]
Electrode response [1]: 4.7 μA

Electrode response [1]: 0.0 μA
SMILES: O=Cc1cccc(O)c1 [m-hydroxy-benzaldehyde]
whether the electrode responded [1]: responded to all the phenols tested except

SMILES: Cc1ccccc1O [o-cresol]
Electrode response [1]: 0.0 μA
whether the electrode responded [1]: responded to all the phenols tested except

SMILES: Nc1ccc(O)cc1 [p-aminophenol]
Electrode response [1]: 2.4 μA

SMILES: Cc1ccc(O)cc1 [p-cresol]
Electrode response after the first three assays [2]: 4.0 μA
Electrode response, first assay ([2]; start of series of sixteen assays): 1.9 μA
Electrode response over the next eleven assays ([2]; started to fall after assay fourteen): remained stable
Electrode response [1]: 5.6 μA
Initial response ([3]; 5° C., stored dry): 4.3 μA and 3.7 μA
Response after 3 days ([3]; 5° C., stored dry): 4.4 μA and 4.5 μA
Response after 48 days ([3]; 5° C., stored dry): 4.7 μA and 3.5 μA
Initial response ([3]; 5° C., stored in CHCl3): 4.8 μA and 3.8 μA
Response after 3 days ([3]; 5° C., stored in CHCl3): 8.1 μA and 9.5 μA
Response after 48 days ([3]; 5° C., stored in CHCl3): 10.0 μA and 7.6 μA
decrease in response ([3]; electrodes stored at 5° C.): no significant decrease
average loss of activity (of the response) ([3]; electrodes stored at room temperature, after three days): 30%
Initial response [3, 5]: 5.2 μA and 4.8 μA
Response after 3 days [3, 5]: 6.8 μA and 5.4 μA
Response after 48 days [3, 5]: 3.6 μA and 2.8 μA
Initial response [3, 6]: 4.0 μA and 4.2 μA
Response after 3 days [3, 6]: 7.0 μA and 7.2 μA
Response after 48 days [3, 6]: 5.5 μA and 6.5 μA
time for the current increase to reach a steady value [4]: 3 to 5 min

SMILES: O=Cc1ccc(O)cc1 [p-hydroxy-benzaldehyde]
Electrode response [1]: 0.0 μA
whether the electrode responded [1]: responded to all the phenols tested except

SMILES: Oc1ccccc1 [phenol]
Electrode response [1]: 6.4 μA
